PubChem BioAssay AID248 (DTP/NCI, 2004)
“And” between values parts separate entries of the source, which are not always exact repeats. Equal entries are not always repeated. Toxic doses and inconclusive results are not listed. No stated cut-off is given here; in the data, active means T/C of 150% or more; inactive means T/C below 125%.

System: L1210 leukemia ip in BDF1 mice, survival T/C
Assay: NCI In Vivo Anticancer Drug Screen. Data for tumor model L1210 Leukemia (intraperitoneal) in B6D2F1 (BDF1) mice
Conditions: endpoint: mean survival time, higher = longer survival
Method in brief: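 Antitumor effect is assessed in tumor-bearing animals. Survival in the compound arm is compared with a vehicle-dosed control arm and expressed as their quotient.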

[1] = dose: 100.0 mg/kg/injection, schedule: Q01DX009 (ip), vehicle: Klucel (hydroxypropylcellulose) (HPC)
[2] = dose: 200.0 mg/kg/injection, schedule: Q01DX009 (ip), vehicle: Klucel (hydroxypropylcellulose) (HPC)
[3] = dose: 400.0 mg/kg/injection, schedule: Q01DX009 (ip), vehicle: Klucel (hydroxypropylcellulose) (HPC)
[4] = dose: 50.0 mg/kg/injection, schedule: Q01DX001 (ip), vehicle: carboxymethylcellulose (CMC)
[5] = dose: 100.0 mg/kg/injection, schedule: Q01DX001 (ip), vehicle: carboxymethylcellulose (CMC)
[6] = dose: 100.0 mg/kg/injection, schedule: Q04DX003 (ip), vehicle: Klucel (hydroxypropylcellulose) (HPC)
[7] = dose: 200.0 mg/kg/injection, schedule: Q04DX003 (ip), vehicle: Klucel (hydroxypropylcellulose) (HPC)
[8] = dose: 400.0 mg/kg/injection, schedule: Q04DX003 (ip), vehicle: Klucel (hydroxypropylcellulose) (HPC)
[9] = dose: 100.0 mg/kg/injection, schedule: Q04DX002 (ip), vehicle: Klucel (hydroxypropylcellulose) (HPC)
[10] = dose: 200.0 mg/kg/injection, schedule: Q04DX002 (ip), vehicle: Klucel (hydroxypropylcellulose) (HPC)
[11] = dose: 400.0 mg/kg/injection, schedule: Q04DX002 (ip), vehicle: Klucel (hydroxypropylcellulose) (HPC)
[12] = dose: 100.0 mg/kg/injection, schedule: Q01DX009 (ip), vehicle: gum acacia
[13] = dose: 200.0 mg/kg/injection, schedule: Q01DX009 (ip), vehicle: gum acacia
[14] = dose: 200.0 mg/kg/injection, schedule: Q01DX001 (ip), vehicle: carboxymethylcellulose (CMC)

Measured: T/C

N#CCCO
inactive: dose: 25.0 mg/kg/injection, schedule: Q04DX002 (ip), vehicle: saline 98 % of control | dose: 50.0 mg/kg/injection, schedule: Q04DX002 (ip), vehicle: saline 101 % of control | dose: 100.0 mg/kg/injection, schedule: Q04DX002 (ip), vehicle: saline 110 % of control and 121 % of control | dose: 200.0 mg/kg/injection, schedule: Q04DX002 (ip), vehicle: saline 96 % of control | dose: 400.0 mg/kg/injection, schedule: Q04DX002 (ip), vehicle: saline 108 % of control

c1ccc2c(c1)C(=C1c3ccccc3-c3ccccc31)c1ccccc1-2
inactive: dose: 100.0 mg/kg/injection, schedule: Q01DX001 (ip), vehicle: Klucel (hydroxypropylcellulose) (HPC) 104 % of control | dose: 200.0 mg/kg/injection, schedule: Q01DX001 (ip), vehicle: Klucel (hydroxypropylcellulose) (HPC) 96 % of control

COc1ccccc1C[N+](C)(C)C
inactive: dose: 20.0 mg/kg/injection, schedule: Q01DX001 (ip), vehicle: saline 95 % of control | dose: 20.0 mg/kg/injection, schedule: Q01DX009 (ip), vehicle: saline 108 % of control | dose: 40.0 mg/kg/injection, schedule: Q01DX001 (ip), vehicle: saline 97 % of control | dose: 40.0 mg/kg/injection, schedule: Q01DX009 (ip), vehicle: saline 108 % of control | dose: 80.0 mg/kg/injection, schedule: Q01DX001 (ip), vehicle: saline 102 % of control

C=C(Nc1ccc2ccccc2c1)S(=O)(=O)O
inactive: [1] 94 % of control | [2] 103 % of control | [3] 96 % of control

ClCCCN1CCN(CCCCl)CC1
inactive: dose: 6.25 mg/kg/injection, schedule: Q01DX009 (ip), vehicle: distilled water + alcohol 93 % of control | dose: 12.5 mg/kg/injection, schedule: Q01DX009 (ip), vehicle: distilled water + alcohol 95 % of control | dose: 25.0 mg/kg/injection, schedule: Q01DX009 (ip), vehicle: distilled water + alcohol 101 % of control | dose: 50.0 mg/kg/injection, schedule: Q01DX009 (ip), vehicle: distilled water + alcohol 113 % of control | dose: 100.0 mg/kg/injection, schedule: Q01DX009 (ip), vehicle: distilled water + alcohol 114 % of control

Cc1cc(C)c(NS(=O)(=O)c2ccccc2)c([N+](=O)[O-])c1
inactive: dose: 100.0 mg/kg/injection, schedule: Q04DX002 (ip), vehicle: saline with Tween-80 101 % of control | dose: 200.0 mg/kg/injection, schedule: Q04DX002 (ip), vehicle: saline with Tween-80 104 % of control | dose: 400.0 mg/kg/injection, schedule: Q04DX002 (ip), vehicle: saline with Tween-80 104 % of control

C=CCC(O)C=C (centres undefined)
inactive: [4] 89 % of control | [5] 92 % of control

Cc1ccc(C)c(NS(=O)(=O)c2ccc(Cl)cc2)c1
inactive: [1] 102 % of control | [6] 107 % of control | [2] 98 % of control | [7] 113 % of control | [3] 98 % of control | [8] 113 % of control

CCOc1cc(OCC)c(OCC)cc1/C=C1\N=C(c2ccccc2)OC1=O
inactive: [9] 96 % of control | [10] 96 % of control | [11] 96 % of control

O=Cc1occ(-c2ccccc2)c1-c1ccccc1
inactive: [6] 94 % of control | [7] 97 % of control | [8] 98 % of control

CC1(C)CCC(C)(C)C(O)C1O (centres undefined)
inactive: [9] 92 % of control | [10] 105 % of control | [11] 118 % of control

Cc1ccc(C)c(NC(=O)Nc2cccc3ccccc23)c1
inactive: [12] 96 % of control | [6] 89 % of control | [13] 100 % of control | [7] 93 % of control | dose: 400.0 mg/kg/injection, schedule: Q01DX009 (ip), vehicle: gum acacia 91 % of control | [8] 98 % of control

Nc1nc2c(c(=O)[nH]1)N(Cc1ccccc1)C(CNc1ccc(C(=O)NC(CCC(=O)O)C(=O)O)cc1)CN2 (centres undefined)
inactive: dose: 100.0 mg/kg/injection, schedule: Q01DX001 (ip), vehicle: alkali diluted with saline 91 % of control | dose: 200.0 mg/kg/injection, schedule: Q01DX001 (ip), vehicle: alkali diluted with saline 94 % of control | dose: 400.0 mg/kg/injection, schedule: Q01DX001 (ip), vehicle: alkali diluted with saline 100 % of control

C=CC[As](=O)(O)O
inactive: dose: 25.0 mg/kg/injection, schedule: Q04DX003 (ip), vehicle: saline with Tween-80 98 % of control | dose: 50.0 mg/kg/injection, schedule: Q04DX003 (ip), vehicle: saline with Tween-80 104 % of control | dose: 100.0 mg/kg/injection, schedule: Q04DX003 (ip), vehicle: saline with Tween-80 92 % of control

O=C1C2=C(CCCC2)C(=O)c2ccccc21
inactive: dose: 50.0 mg/kg/injection, schedule: Q01DX001 (ip), vehicle: saline 93 % of control | dose: 100.0 mg/kg/injection, schedule: Q01DX001 (ip), vehicle: saline 100 % of control | dose: 200.0 mg/kg/injection, schedule: Q01DX001 (ip), vehicle: saline 96 % of control | dose: 400.0 mg/kg/injection, schedule: Q01DX001 (ip), vehicle: saline 102 % of control

[Br][Nd]([Br])[Br]
inactive: dose: 50.0 mg/kg/injection, schedule: Q04DX003 (ip), vehicle: saline 96 % of control | dose: 100.0 mg/kg/injection, schedule: Q04DX003 (ip), vehicle: saline 91 % of control | dose: 200.0 mg/kg/injection, schedule: Q04DX003 (ip), vehicle: saline 97 % of control | dose: 400.0 mg/kg/injection, schedule: Q04DX003 (ip), vehicle: saline 86 % of control

BrC(Br)c1ccccc1C(Br)Br
inactive: [12] 98 % of control | dose: 100.0 mg/kg/injection, schedule: Q04DX003 (ip), vehicle: gum acacia 99 % of control | [13] 98 % of control | dose: 200.0 mg/kg/injection, schedule: Q04DX003 (ip), vehicle: gum acacia 108 % of control | dose: 400.0 mg/kg/injection, schedule: Q04DX003 (ip), vehicle: gum acacia 97 % of control

CCCC[P+](C)(CCCC)CCCC
inactive: dose: 8.8 mg/kg/injection, schedule: Q01DX Z (ip), vehicle: saline 98 % of control | dose: 13.3 mg/kg/injection, schedule: Q01DX Z (ip), vehicle: saline 93 % of control | dose: 20.0 mg/kg/injection, schedule: Q01DX Z (ip), vehicle: saline 86 % of control

Cc1ccc(S(=O)(=O)NNC(=O)c2ccc[nH]2)cc1
inactive: dose: 75.0 mg/kg/injection, schedule: Q01DX001 (ip), vehicle: saline 101 % of control | dose: 150.0 mg/kg/injection, schedule: Q01DX001 (ip), vehicle: saline 101 % of control | dose: 300.0 mg/kg/injection, schedule: Q01DX001 (ip), vehicle: saline 96 % of control

CC(=O)OCC1CCC(NC(=O)NCCF)CC1 (centres undefined)
inactive: dose: 50.0 mg/kg/injection, schedule: Q01DX001 (ip), vehicle: saline with Tween-80 101 % of control | dose: 100.0 mg/kg/injection, schedule: Q01DX001 (ip), vehicle: saline with Tween-80 106 % of control | dose: 200.0 mg/kg/injection, schedule: Q01DX001 (ip), vehicle: saline with Tween-80 95 % of control

CCOC(=O)C(C)F (centres undefined)
inactive: [4] 94 % of control | [5] 89 % of control | [14] 89 % of control

O=C/C(=C\C=C\c1ccc([N+](=O)[O-])cc1)c1ccccc1
inactive: dose: 75.0 mg/kg/injection, schedule: Q01DX001 (ip), vehicle: Klucel (hydroxypropylcellulose) (HPC) 86 % of control | dose: 150.0 mg/kg/injection, schedule: Q01DX001 (ip), vehicle: Klucel (hydroxypropylcellulose) (HPC) 88 % of control | dose: 300.0 mg/kg/injection, schedule: Q01DX001 (ip), vehicle: Klucel (hydroxypropylcellulose) (HPC) 89 % of control

CC(=O)OCCC#N
inactive: [4] 95 % of control | [5] 95 % of control | [14] 106 % of control | dose: 400.0 mg/kg/injection, schedule: Q01DX001 (ip), vehicle: carboxymethylcellulose (CMC) 95 % of control
